{
  "source": "patent US20220324965A1",
  "about": "“COMBINATION THERAPY INVOLVING ANTIBODIES AGAINST CLAUDIN 18.2 AND IMMUNE CHECKPOINT INHIBITORS FOR TREATMENT OF CANCER” (Astellas Pharma Inc., priority 2019, published 2022)",
  "assay_type_in_all_cases": "in vivo",
  "key": {"[1]": {"tested_on": "CLS-103 LVT-murinCLDN18.2 syngeneic tumors", "experiment": "Efficacy of IMAB362 plus anti-mCTLA-4 antibody in subcutaneous syngeneic gastric carcinoma model, endpoint day 14 (Example 3)", "details": "n=12 per group, IMAB362 800 μg/mouse, anti-mCTLA-4 antibody 300 μg/mouse, intraperitoneal twice per week, vs Rituximab/isotype control group", "from_the_text": "(§1) In order to determine whether a combination of an anti-CLDN18.2 antibody and an immune checkpoint inhibitor improves anti-tumor activity over the single agents alone in vivo, anti-tumor activity of IMAB362 in combination with an anti-mCTLA-4 antibody was examined in a subcutaneously transplanted syngeneic gastric carcinoma model in immunocompetent outbred Crl:NMRI(Han) mice using CLS-103 cells with lentiviral transduction of murine CLDN18.2 (CLS-103 LVT-murinCLDN18.2). Rituximab was used as an isotype control of IMAB362.\n(§2) • Anti-CLDN18.2 antibody: IMAB362 (Astellas Pharma Inc.) • control antibody: Rituximab BS Intravenous Infusion [KHK] […]\n(§3) Lentivirally transduced mouse CLDN18.2 expressing tumor cells (CLS-103 LVT-murinCLDN18.2) were engrafted subcutaneously into the right flank of female Crl:NMRI(Han) mice (11-week-old) at 2×10^6 cells/mouse. Mice were randomized based on tumor volume measured 2 days after engraftment into 4 groups (n=12 per group). […] Tumors were measured twice per week. […] Tumor volume was determined by length×width×width×0.5. Tumor growth inhibition (TGI [%]) or tumor regression rate (TRR [%]) of each group was calculated using the equations described below. […]"}, "[2]": {"tested_on": "CLS-103 LVT-murinCLDN18.2 syngeneic tumors", "experiment": "Long-term efficacy of IMAB362 plus anti-mPD-1 antibody in subcutaneous syngeneic gastric carcinoma model, up to day 28 (Example 2)", "details": "IMAB362 800 μg/mouse, anti-mPD-1 antibody 100 μg/mouse, intraperitoneal twice per week", "from_the_text": "as §1, with “vivo in long-term period,” for “vivo,”, “anti-mPD-1” for “anti-mCTLA-4”, “examined up to day 28” for “examined”\nas §2\nLentivirally transduced mouse CLDN18.2 expressing tumor cells (CLS-103 LVT-murinCLDN18.2) were engrafted subcutaneously into the right flank of female Crl:NMRI(Han) mice (11-week-old) at 2×10^6 cells/mouse. Mice were randomized based on tumor volume measured 2 days after engraftment into 4 groups (n=12 per group). […] Tumors were measured twice per week. […] Tumor volume was determined by length×width×width×0.5. Mean tumor volume was calculated up to day 21 since 1 of 12 mice in the Rituximab/isotype treated group, as well as in the anti-mPD-1 antibody single agent group, was sacrificed due to tumor size being over 2000 mm^3. […] Complete regression (CR) was determined up to day 28 as the tumor volume of individual regressed to zero. […]"}, "[3]": {"tested_on": "CLS-103 LVT-murinCLDN18.2 syngeneic tumors", "experiment": "Efficacy of IMAB362 plus anti-mPD-1 antibody in subcutaneous syngeneic gastric carcinoma model, endpoint day 14 (Example 1)", "details": "female Crl:NMRI(Han) mice, n=12 per group, IMAB362 800 μg/mouse, anti-mPD-1 antibody 100 μg/mouse, intraperitoneal twice per week, vs Rituximab/isotype control group", "from_the_text": "as §1, with “provides improved” for “improves”, “anti-mPD-1” for “anti-mCTLA-4”, “[…]).” for “LVT-murinCLDN18.2).”\nas §2\nas §3, with “(10-week-old)” for “(11-week-old)”, “(TGI[%])” for “(TGI [%]) or tumor regression rate (TRR [%])”, “equation” for “equations”"}, "[4]": {"tested_on": "CLS-103 LVT-murinCLDN18.2 syngeneic tumors", "experiment": "Efficacy of IMAB362 plus anti-mPD-L1 antibody in subcutaneous syngeneic gastric carcinoma model, endpoint day 14 (Example 4)", "details": "n=12 per group, IMAB362 800 μg/mouse, anti-mPD-L1 antibody 300 μg/mouse, intraperitoneal twice per week, vs Rituximab/isotype control group", "from_the_text": "as §1, with “anti-mPD-L1” for “anti-mCTLA-4”\nas §2, §3"}},
  "data": [
    {"substance": "IMAB362: chimeric IgG1 antibody directed against CLDN18.2; heavy chain SEQ ID NO: 51, light chain SEQ ID NO: 24", "values": [
      {"measurement": "Tumor growth inhibition (TGI)", "setting": "[1]", "result": 72, "unit": "%"},
      {"measurement": "Tumor growth inhibition (TGI)", "setting": "[2]; day 21, n=12 per group, vs Rituximab/isotype control group", "result": 40, "unit": "%"},
      {"measurement": "number of mice with complete regression (CR) in the group of 12 mice", "setting": "[2]; day 28, CR = tumor volume regressed to zero", "result": 2},
      {"measurement": "Tumor growth inhibition (TGI)", "setting": "[3]", "result": 50, "unit": "%"},
      {"measurement": "Tumor growth inhibition (TGI)", "setting": "[4]", "result": 60, "unit": "%"}
    ]}
  ]
}
